Where two headings read alike, the source gives them in different places. Ends that are not written are not given here.
What was measured:
CCK Receptor (Pancreas) = biological target: T1, CCK Receptor (Pancreas) (Rattus norvegicus, UniProt P30551); test: CCK Receptor Binding (Pancreas), inhibition of 125I-CCK-33 binding; set-up: species or system Sprague-Dawley rats
T1 construct: The whole pancreas was dissected free of fat tissue and was homogenized; from tissue; host or cells: rat whole pancreas membranes
T1 sequence (P30551 1-444): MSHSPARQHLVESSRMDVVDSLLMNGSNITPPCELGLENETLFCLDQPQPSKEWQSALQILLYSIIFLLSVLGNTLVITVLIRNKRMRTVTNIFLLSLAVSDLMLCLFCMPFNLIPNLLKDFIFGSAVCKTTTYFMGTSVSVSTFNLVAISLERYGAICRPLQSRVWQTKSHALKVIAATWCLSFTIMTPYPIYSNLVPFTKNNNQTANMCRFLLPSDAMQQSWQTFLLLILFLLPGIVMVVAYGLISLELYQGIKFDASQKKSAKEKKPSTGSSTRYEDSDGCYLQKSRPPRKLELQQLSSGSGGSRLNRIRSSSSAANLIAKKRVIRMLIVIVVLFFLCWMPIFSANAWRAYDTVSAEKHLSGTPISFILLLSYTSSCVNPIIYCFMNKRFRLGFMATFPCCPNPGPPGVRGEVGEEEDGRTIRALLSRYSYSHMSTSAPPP
Procedure: CCK-33 was radiolabeled with ¹²⁵I-Bolton Hunter reagent (2000 Ci/mmole) as described by Sankara et al. (J. Biol. Chem. 254: 9349-9351, 1979). Receptor binding was performed according to Innis and Snyder (Proc. Natl. Acad. Sci. 77, 6917-6921, 1980) with the minor modification of adding the additional protease inhibitors, phenylmethane sulfonyl fluoride and o-phenanthroline.
Male Sprague-Dawley rats (200-350g) were sacrificed by decapitation. The whole pancreas was dissected free of fat tissue and was homogenized in 20 volumes of ice-cold 50 mM Tris HCI (pH 7.7 at 25°C) with a Brinkmann Polytron PT 10. The homogenates were centrifuged at 48,000 g for 10 min. Pellets were resuspended in Tris Buffer, centrifuged as above and resuspended in 200 volumes of binding assay buffer (50 mM Tris HCI, pH 7.7 at 25°C, 5 mM dithiothrietol, 0.1 mM bacitracin, 1.2 mM phenylmethane sulfonyl fluoride and 0.5 mM o-phenanthroline). […] All assays were run in duplicate or triplicate. The reaction mixtures were incubated at 37°C for 30 minutes and centrifuged in a Beckman Microfuge (4 minutes) immediately after adding 1 ml of ice-cold incubation buffer. The supernatant was aspirated and discarded, pellets were counted with a Beckman gamma 5000. For Scatchard analysis (Ann. N.Y. Acad. Sci. 51: 660, 1949), ¹²⁵I-CCK-33 was progressively diluted with increasing concentrations of CCK-33.

Gastrin Receptor = biological target: T2, Gastrin Receptor (Cavia porcellus, UniProt H0VZC5); test: Gastrin Receptor Binding in Guinea Pig Gastric Glands (125I-gastrin)
T2 construct: The washed guinea pig gastric glands prepared as above were resuspended; from tissue; host or cells: guinea pig gastric mucosal glands (intact glands after collagenase)
T2 sequence (H0VZC5 1-426): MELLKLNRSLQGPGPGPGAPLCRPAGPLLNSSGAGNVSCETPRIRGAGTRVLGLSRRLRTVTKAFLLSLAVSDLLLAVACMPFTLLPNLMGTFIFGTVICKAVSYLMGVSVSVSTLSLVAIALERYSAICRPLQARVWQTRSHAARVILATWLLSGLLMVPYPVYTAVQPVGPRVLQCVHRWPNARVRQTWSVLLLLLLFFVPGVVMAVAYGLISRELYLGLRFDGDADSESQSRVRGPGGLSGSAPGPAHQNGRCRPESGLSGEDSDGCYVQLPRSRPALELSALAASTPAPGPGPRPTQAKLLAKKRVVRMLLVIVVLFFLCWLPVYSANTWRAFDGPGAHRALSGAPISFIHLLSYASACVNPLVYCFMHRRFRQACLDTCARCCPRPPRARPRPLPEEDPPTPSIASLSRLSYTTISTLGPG

DBA2 mice = test: Black/white exploration test (animal model of anxiety); format: in vivo; settings: for active dose range / difference in time spent in the black and white side / preference for rearing in the black side: mice; for active dose range: black/white exploration test
Source text: The black/white exploration test [Crawley et al. Pharmacology, Biochemistry and Behav. 13, 167 (1980)] is a simple animal model of anxiety. Rodents placed in a two compartment box which consists of a brightly lit, white painted side and a dimly lit, black painted side, display a marked preference for the black side of the apparatus. This behavior is caused by the aversive properties of the brightly lit, white painted section. Classical anxiolytic drugs [such as diazepam, see Crawley, supra] and novel anxiolytic drugs [such as 5HT₃ antagonists, see Jones et al. Br. J. Pharm. 93, 985 (1988)] decrease the preference of the animal for the black dimly lit side of the apparatus.
A. Naive male DBA2 mice (25-30) were housed on a reversed light/dark cycle and tested during the dark phase of the cycle under dim red light. The apparatus consisted of an open topped box (40cm long X 27 cm wide X 27 cm high) divided into a small area (2/5) and a large area (3/5) by a partition that extended 20 cm above the walls. There was a 7.5 X 7.5 cm opening in the partition at floor level. The small compartment was painted black and the large compartment white. The floor of each compartment was marked into 9 cm squares. The white compartment was illuminated by a 100 W tungsten bulb 17 cm above the box and the black compartment by a similarly placed 60 W red bulb.
Animals that had been injected with drug or vehicle were placed individually into the centre of the white area and their behavior observed during a 5 minute period by remote video recording. Four behavioral parameters were recorded every minute: the number of exploratory rears in the white and black sections, the number of line crossings in the black and white sections, the number of transitions between the two sections and the time spent in the black and white sections. Animals were tested in treatment groups of 8-10 and vehicle controls were run on each test day. Data were analysed by ANOVA and Dunnetts test.

Sprague Dawley rats = test: Exploratory/locomotor activity in automated activity cages (novel environment); format: in vivo
Procedure: B. The effects of CCK-8 and compound A on the exploratory behavior of the rat were examined in automated activity cages and by direct observation. It is known that exogenous CCK-8 decreases exploratory behavior in rats in a novel environment by accelerating the process of habituation. [See Crawley, Pharm. Biochem & Behav. 20, 23-27 (1984).]
Expt 1. Male Sprague Dawley rats were injected ([…].) with CCK-8 and immediately placed in automated activity cages. Activity was measured for 30 minutes past injection.
Expt 2. Male SD rats were injected (s.c.) with the CCK antagonist compound A (0.0001-10mg/kg) and immediately placed in the automated activity cages. […] As the anxiolytic drug chlordiazepoxide also increases spontaneous locomotor activity in rats in a novel environment [(McElroy et al. Psychopharm. 85: 224-226 (1985)] these findings are consistent with an anxiolytic action of Compound A useful in the treatment of panic disorder.

rats = test: Exploration in a novel environment by direct observation (perspex cage); format: in vivo; settings: 0.1 mg/kg, 15 minute period 15 minutes after treatment
Procedure: Expt 3. In order to assess further the effect of Compound A on exploration in a novel environment, the motoric hehaviors of rats placed in a perspex cage was recorded by direct observation for a 15 minute period 15 minutes after treatment with Compound A.
Experimenters (unaware of the treatments the animals had received) recorded the frequency and duration of rearing, sniffing, grooming and cage crossing using a keypad interfaced to a BBC microcomputer.

In the case of `CN1C(=O)C(NC(=O)c2cc3ccccc3[nH]2)N=C(c2ccncc2)c2ccccc21` (racemic) [Example 17, 1,3-Dihydro-3(RS)-(2-indolecarbonylamino)-1-methyl-5-(4-pyridyl)-2H-1,4-benzodiazepin-2-one], the IC50 (CCK Receptor (Pancreas)) is reported as 0.0068 µM and the IC50 (Gastrin Receptor) is reported as 0.66 µM.
Work on `CN1C(=O)C(NC(=O)c2cc3ccccc3[nH]2)N=C(c2ccccn2)c2ccccc21` (racemic) [Example 24, (RS)-N-(2,3-Dihydro-1-methyl-2-oxo-5-(2-pyridyl)-1H-1,4-benzodiazepin-3-yl)-1H-indole-2-carboxamide] yielded an IC50 (CCK Receptor (Pancreas)) of 0.00037 µM and an IC50 (Gastrin Receptor) of 0.16 µM.
For `Cc1cccc(NC(=O)NC2N=C(c3ccccn3)c3ccccc3N(CC(C)C)C2=O)c1` (racemic) [Example 25, (RS)-N-(2,3-Dihydro-1-(2-methylpropyl)-2-oxo-5-(2-pyridyl)-1H-1,4-benzodiazepin-3-yl)-N′-(3-methyl-phenyl)-urea], the IC50 (CCK Receptor (Pancreas)) was 0.49 µM and the IC50 (Gastrin Receptor) was 0.00067 µM.
`CN1C(=O)C(NC(=O)Nc2ccc3c(c2)CCC3)N=C(c2ccccc2)c2ccccc21` (racemic) [Example 26, (RS)-N-(2,3-dihydro-1-methyl-2-oxo-5-phenyl-1H-1,4-benzodiazepin-3-yl)-N′-(5-indanyl)urea] was tested, and the IC50 (CCK Receptor (Pancreas)) was 0.075 µM and the IC50 (Gastrin Receptor; guinea pig gastric glands, 125I-gastrin, 25°C 30 minutes, read-out: IC50(µM) 125I-Gastrin Gastric Glands) was 0.0019 µM.
For `Cc1cccc(NC(=O)N[C@@H]2N=C(c3ccccc3)c3ccccc3N(C)C2=O)c1` [Example 5, (R)-N-(2,3-Dihydro-1-methyl-2-oxo-5-phenyl-1H-1,4-benzodiazepin-3-yl)-N′-(3-methylphenyl)-urea], the IC50 (CCK Receptor (Pancreas); rat pancreas membranes, 125I-CCK-33, 37°C 30 minutes, read-out: IC50(µM) 125I-CCK Pancreas) was 0.28 µM, the active dose range (DBA2 mice) was 0.005 to 0.05 µg/kg and the “difference in time spent in the black and white side” value (DBA2 mice; dose of 0.005 ug/kg) was “decreased”. For the same compound, the “preference for rearing in the black side” value (DBA2 mice; dose of 0.05 ug/kg) was “abolished”.
`Cc1cccc(NC(=O)N[C@H]2N=C(c3ccccc3)c3ccccc3N(C)C2=O)c1` [Example 11, (S)-N-(2,3-Dihydro-1-methyl-2-oxo-5-phenyl-1H-1,4-benzodiazepin-3-yl)-N′-(3-methylphonyl)-urea] showed an IC50 (CCK Receptor (Pancreas)) of 0.0041 µM and an IC50 (Gastrin Receptor) of 0.092 µM.
`CN1C(=O)[C@@H](NC(=O)c2cc3ccccc3[nH]2)N=C(c2ccccc2)c2ccccc21` [Example 16, 3(S)-(-)-1,3-Dihydro-3-(2-indolecarbonylamino)-1-methyl-5-phenyl-2H-1,4-benzodiazepin-2-one] was tested, and the “preference for locomotion (line crossings) in the black side” value (DBA2 mice; mice, 0.5, 5.0 and 500 ug/kg) was “abolished”, the “difference in time spent in the black and white side” value (DBA2 mice; 5.0 and 500 ug/kg) was “abolished” and the active dose range (DBA2 mice) was 0.05 to 5.0 µg/kg. For the same compound, the “preference for rearing in the black side” value (DBA2 mice; doses of 0.05, 0.5, 5.0 and 500 ug/kg) was “significantly decreased”, the “habituation and period of exploratory activity” value (Sprague Dawley rats; s.c., 0.0001-10mg/kg, F(6,124) = 2.54, p<0.05) was “delayed habituation and prolonged the period of exploratory activity” and the levels of activity (Sprague Dawley rats; s.c., 0.1 mg/kg, at 25 minutes, p<0.01) was “significantly above controls”. The “activity, higher and lower doses” value (Sprague Dawley rats; s.c., doses higher and lower than 0.1 mg/kg, at 25 minutes, bell-shaped dose response curve) was “no significant effect”, the Sniffing (rats; P<0.01) was “significantly increased” and the rearing (rats; P<0.01) was “significantly increased”. For the same compound, the cage crossing (rats; P<0.05) was “significantly increased”.
With `CN1C(=O)[C@H](NC(=O)Nc2cc3c(cn2)[nH]c2ccccc23)N=C(c2ccccc2)c2ccccc21` [Example 22] the IC50 (CCK Receptor (Pancreas)) was 0.0044 µM and the IC50 (Gastrin Receptor) was 1.3 µM.
Compound `CN1C(=O)[C@@H](NC(=O)c2cc3cc(O)ccc3[nH]2)N=C(c2ccccc2)c2ccccc21` [Example 27, 1,3-Dihydro-3-(5-hydroxyindole-2-carbonylamino)-1-methyl-5-phenyl-2H-1,4-benzodiapin-2-one] has an IC50 (CCK Receptor (Pancreas)) of 0.0033 µM.
In the case of “CCK-8 (DYMGWMDF; ends and bridges not checked; UniProt P06307 96-103, looked up) [reference compound]”, the locomotor activity (Sprague Dawley rats; i.p., 0.5-16µg/kg, 30 minutes post injection, F(6,87) = 3.21 (p<0.01)) is reported as “dose-dependently decreased”.
